Consider two compounds from patent US20260042867A1, “ANTIBODY REPURPOSING” (priority 2022, published 2026).

Like-named read-outs stand apart in the source and are kept apart here.

Assay type in all cases: binding, SARS-COV-2
One experiment concerns the target SRBD - omicron.
Experiment [1] concerns the target SARS-Cov2 SRBD and anti-alpha-Gal antibody (Severe acute respiratory syndrome coronavirus 2, UniProt P0DTC2).
Experiment [2] has as its system Omicron S1/S2 ECD and anti-alpha-Gal antibody.

A word on the Kd: it is the free concentration of one partner at which half of the binding sites on the other are occupied at equilibrium, for simple one-to-one binding. Low readings indicate a tighter complex, high ones a looser complex. The compound `COC[C@H](NC(=O)[C@H]1c2ccccc2C(=O)N(CCCNC(=O)[C@@H](C)NC(=O)Cc2ccc(CNC(=O)[C@H](Cc3ccc(F)cc3)NC(=O)[C@H]3c4ccccc4C(=O)N(CCCNC(=O)CNC(=O)Cc4ccc(CNC(=O)[C@H](Cc5ccc(F)cc5)NC(=O)[C@H]5c6ccccc6C(=O)N(CCCNC(=O)[C@@H](CCC(=O)O)NC(=O)Cc6ccc(CNC(=O)[C@H](C)NC(=O)[C@H]7c8ccccc8C(=O)N(CCCNC(=O)[C@@H](C)N)[C@@H]7c7ccc(CCC(=O)O)cc7)cc6)[C@@H]5c5cccc(Oc6ccccc6)c5)cc4)[C@@H]3c3ccc(O)cc3)cc2)[C@@H]1c1ccc(O)cc1)C(=O)NCc1ccc(CC(=O)NCC(=O)NCCCN2C(=O)c3ccccc3[C@H](C(=O)N[C@@H](CC3CC3)C(=O)NCc3ccc(CC(=O)N[C@H](CCC(=O)O)C(=O)NCCCN4C(=O)c5ccccc5[C@H](C(=O)N[C@@H](C)C(=O)NCc5ccc(CC(=O)NCCCN6C(=O)c7ccccc7[C@H](C(=O)N[C@H](CCCCN)C(=O)N[C@H](C(=O)NCc7ccc(CC(=O)N[C@H](C)C(=O)NCCCN8C(=O)c9ccccc9[C@H](C(=O)N[C@@H](CC9CC9)C(=O)NCc9ccc(CC(N)=O)cc9)[C@H]8c8ccc(CCC(=O)O)cc8)cc7)C(C)C)[C@H]6c6ccccc6)cc5)[C@H]4c4cccnc4)cc3)[C@H]2c2cccnc2)cc1` [Technein 16838-89-8] yielded a Kd on SRBD - omicron of 4 nM. Also, the “antibody repurposing of alpha Gal antibodies (ELISA signal)” value in experiment [1] and in experiment [2] was “significantly lower levels of antibody repurposing” throughout.
For the compound `COC[C@H](NC(=O)[C@@H](CCCCN)NC(=O)[C@H]1c2ccccc2C(=O)N(CCCNC(=O)Cc2ccc(CNC(=O)[C@@H](NC(=O)[C@@H](CCCCN)NC(=O)[C@H]3c4ccccc4C(=O)N(CCCNC(=O)Cc4ccc(CNC(=O)[C@H](CC5CC5)NC(=O)[C@H]5c6ccccc6C(=O)N(CCCNC(=O)[C@@H](C)NC(=O)Cc6ccc(CNC(=O)[C@H](C)NC(=O)[C@@H](CCCCN)NC(=O)[C@H]7c8ccccc8C(=O)N(CCCNC(=O)Cc8ccc(CNC(=O)[C@H](C)NC(=O)CNC(=O)[C@H]9c%10ccccc%10C(=O)N(CCCNC(=O)Cc%10ccc(CNC(=O)[C@H](C)NC(=O)[C@@H](CCC(=O)O)NC(=O)[C@H]%11c%12ccccc%12C(=O)N(CCCNC(=O)Cc%12ccc(CNC(=O)[C@H](Cc%13ccc(F)cc%13)NC(=O)[C@H]%13c%14ccccc%14C(=O)N(CCCNC(=O)[C@@H](CCC(=O)O)NC(=O)Cc%14ccc(CNC(=O)[C@H](C)NC(=O)CNC(=O)[C@H]%15c%16ccccc%16C(=O)N(CCCN)[C@@H]%15c%15ccc(CCC(=O)O)cc%15)cc%14)[C@@H]%13c%13cccc(Oc%14ccccc%14)c%13)cc%12)[C@@H]%11c%11ccc(CCC(=O)O)cc%11)cc%10)[C@@H]9c9cccnc9)cc8)[C@@H]7c7ccc(CCC(=O)O)cc7)cc6)[C@@H]5c5cccc(Oc6ccccc6)c5)cc4)[C@@H]3c3ccccc3)C(C)C)cc2)[C@@H]1c1ccc(O)cc1)C(=O)NCc1ccc(CC(N)=O)cc1` [Technein 16838-89-7], at SRBD - omicron (BLI, SRBD - omicron, global 1:2 fitting), the Kd turned out to be 7 nM.
